The target in assay [1] is 5-HT2A receptor (Homo sapiens, UniProt P28223). Nature of the assay: Binding to 5-HT2A receptor (selectivity). Further details: dose or concentration left out as unconfirmed. The settings on record: selectivity versus 5-HT6; read-out: percent inhibition for the 5-HT2A receptor.
The target of assay [2] is T1, 5HT2C receptor (Homo sapiens, UniProt P28335).
T1 sequence (P28335 33-458): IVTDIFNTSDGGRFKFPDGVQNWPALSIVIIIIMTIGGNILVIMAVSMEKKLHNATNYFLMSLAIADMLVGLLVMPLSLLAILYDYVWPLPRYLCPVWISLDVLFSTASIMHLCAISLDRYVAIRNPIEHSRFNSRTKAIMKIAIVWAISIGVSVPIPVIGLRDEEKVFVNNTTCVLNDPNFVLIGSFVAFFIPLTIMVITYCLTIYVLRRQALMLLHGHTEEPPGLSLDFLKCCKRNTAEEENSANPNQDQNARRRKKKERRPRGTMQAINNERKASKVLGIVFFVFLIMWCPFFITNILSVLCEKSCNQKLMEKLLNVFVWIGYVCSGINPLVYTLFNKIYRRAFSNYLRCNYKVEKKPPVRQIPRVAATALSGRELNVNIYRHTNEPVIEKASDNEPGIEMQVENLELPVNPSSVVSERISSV
The assay is described as follows: Binding to 5HT2C receptor (selectivity). The settings on record: selectivity versus 5-HT6; read-out: percent inhibition for the 5HT2C receptor.

The target of assay [3] is 5-HT7 receptor (Homo sapiens, UniProt P34969). The assay is described as follows: Binding to 5-HT7 receptor (selectivity). On the set-up: dose or concentration left out as unconfirmed. The settings on record: selectivity versus 5-HT6; read-out: percent inhibition for the 5-HT7 receptor.
Chain of 5-HT7 receptor (P34969 whole entry): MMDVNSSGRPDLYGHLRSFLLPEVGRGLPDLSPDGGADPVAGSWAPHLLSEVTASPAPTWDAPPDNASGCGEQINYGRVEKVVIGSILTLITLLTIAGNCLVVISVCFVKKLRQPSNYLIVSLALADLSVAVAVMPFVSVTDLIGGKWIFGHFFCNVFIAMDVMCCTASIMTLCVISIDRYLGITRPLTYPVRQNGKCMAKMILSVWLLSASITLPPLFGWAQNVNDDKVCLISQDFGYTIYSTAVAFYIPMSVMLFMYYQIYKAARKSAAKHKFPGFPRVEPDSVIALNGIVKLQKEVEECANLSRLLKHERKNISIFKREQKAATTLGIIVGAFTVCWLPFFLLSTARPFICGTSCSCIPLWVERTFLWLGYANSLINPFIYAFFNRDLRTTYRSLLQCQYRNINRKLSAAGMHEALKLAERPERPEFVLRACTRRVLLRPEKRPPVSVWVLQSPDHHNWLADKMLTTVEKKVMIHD
For assay [4], the target named is human 5HT6 receptor (Homo sapiens, UniProt P50406). The assay is described as follows: Binding affinity for the 5-HT6 receptor (3H-LSD displacement). Further details: expressed in transfected cells. The settings on record: 100 nM test compound; 3H-LSD (2 nM); 60 minute incubation at 37° C; read-out: percent inhibition of radioligand binding for the 5-HT6 receptor. The procedure:
Binding Affinity for the 5-HT6 Receptor
The assay protocol generally entailed the incubation of membranes prepared from cells expressing the 5-HT6 receptor with ^3 H-LSD (2 nM). Increasing levels of the test compound were incubated with the radioligand and the membrane homogenates prepared from the recombinant cells. After a 60 minute incubation at 37° C., the incubation was terminated by vacuum filtration. The filters were washed with buffer and the filters were counted for radioactivity using liquid scintillation spectrometry. […] Concentrations ranging from 10^-11 M to 10^-5 M of the test compound were evaluated. […] Affinity for the 5-HT6 receptor is expressed as the amount (in percent) of binding of the radioligand that is inhibited in the presence of 100 nM of test compound. A greater percent inhibition indicates greater affinity for the 5-HT6 receptor.

The values that follow come from patent publication US6251893A, “Bicyclic piperidine and piperazine compounds having 5-HT6 receptor affinity” (NPS Allelix Corp., priority 1998, dated 2001).

A word on the inhibition: it is the percentage by which the read-out fell short of the control.

Chain of human 5HT6 receptor (P50406 whole entry): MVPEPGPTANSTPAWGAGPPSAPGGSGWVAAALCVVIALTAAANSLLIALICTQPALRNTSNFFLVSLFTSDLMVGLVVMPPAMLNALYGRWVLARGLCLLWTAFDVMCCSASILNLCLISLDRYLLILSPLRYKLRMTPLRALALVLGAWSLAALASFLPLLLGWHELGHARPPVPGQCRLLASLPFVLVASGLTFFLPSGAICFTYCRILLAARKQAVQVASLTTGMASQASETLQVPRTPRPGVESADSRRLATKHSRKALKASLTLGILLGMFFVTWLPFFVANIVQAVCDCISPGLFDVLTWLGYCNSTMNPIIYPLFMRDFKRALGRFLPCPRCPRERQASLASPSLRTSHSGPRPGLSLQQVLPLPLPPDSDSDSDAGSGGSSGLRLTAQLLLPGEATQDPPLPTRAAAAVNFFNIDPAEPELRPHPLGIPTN
Chain of 5-HT2A receptor (P28223 whole entry): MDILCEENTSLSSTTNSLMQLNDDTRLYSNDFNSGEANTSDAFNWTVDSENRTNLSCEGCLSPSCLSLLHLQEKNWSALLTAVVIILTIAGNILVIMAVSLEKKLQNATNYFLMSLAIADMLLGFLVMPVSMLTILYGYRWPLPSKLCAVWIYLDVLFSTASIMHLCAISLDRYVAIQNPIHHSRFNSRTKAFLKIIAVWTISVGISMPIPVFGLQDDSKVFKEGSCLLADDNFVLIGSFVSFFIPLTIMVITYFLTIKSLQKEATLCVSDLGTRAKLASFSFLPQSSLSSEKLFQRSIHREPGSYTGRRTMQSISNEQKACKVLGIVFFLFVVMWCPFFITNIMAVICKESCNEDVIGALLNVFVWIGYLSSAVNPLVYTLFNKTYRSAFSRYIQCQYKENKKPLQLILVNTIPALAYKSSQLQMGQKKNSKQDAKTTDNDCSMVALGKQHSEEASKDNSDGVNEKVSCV

`O=S(=O)(c1ccc2ccccc2c1)n1cc(N2CCN3CCCC3C2)c2ccccc21` (racemic) [Example 6a, 3-[(6-R,S)-1,4-Diaza[4.3. 0]bicyclonon-4-yl]-1-(2-naphthalenesulfonyl)indole]: the inhibition in assay [1] and in assay [3] was less than 20% each time. The inhibition at 0.1 µM is less than 20% in assay [2] and greater than 80% in assay [4].

Consider `O=S(=O)(c1ccc(F)cc1)n1cc(C2=CCN3CCCC3C2)c2cc(F)ccc21` (racemic) [Example 6aa, 5-Fluoro-1-(4-fluorophenylsulfonyl)-3-[(8a-R,S)-1,2,3,5,8,8a-hexahydro-7-indolizinyl]indole], for which the inhibition in assay [1] and in assay [3] was less than 20% each time. Further, the inhibition at 0.1 µM is less than 20% in assay [2] and greater than 80% in assay [4].

Take `O=S(=O)(c1ccc(Br)cc1)n1cc(C2=CCN3CCCC3C2)c2cc(F)ccc21` (racemic) [Example 6bb, 1-(4-Bromophenylsulfonyl)-5-fluoro-3-[(8a-R,S)-1,2,3,5,8,8a-hexahydro-7-indolizinyl]indole]: the inhibition in assay [1] and in assay [3] was less than 20% throughout. Further, the values for the inhibition at 0.1 µM in assay [2] and in assay [4] were less than 20% and greater than 80%, respectively.

With `O=S(=O)(c1ccc(Br)cc1)n1cc(N2CCN3CCCC3C2)c2ccccc21` (racemic) [Example 6c, 1-(4-Bromophenylsulfonyl)-3-[(6-R,S)-1,4-diaza[4.3. 0]bicyclonon-4-yl]indole], the inhibition in assay [1] and in assay [3] was less than 20% throughout. In addition, the inhibition at 0.1 µM in assay [2] was less than 20%; in assay [4], greater than 80%.

For the molecule `O=S(=O)(c1ccccc1Br)n1cc(C2=CCN3CCCC3C2)c2cc(F)ccc21` (racemic) [Example 6cc, 1-(2-Bromophenylsulfonyl)-5-fluoro-3-[(8a-R,S)-1 ,2,3,5,8,8a-hexahydro-7-indolizinyl]indole], the inhibition in assay [1] and in assay [3] was less than 20% throughout. In addition, the inhibition at 0.1 µM in assay [2] is less than 20%; in assay [4], greater than 80%.

Turning to `CC(C)(C)c1ccc(S(=O)(=O)n2cc(N3CCN4CCCC4C3)c3ccccc32)cc1` (racemic) [Example 6d, 1-(4-t-Butylphenylsulfonyl)-3-[(6-R,S)-1,4-diaza[4.3. 0]bicyclonon-4-yl]indole], the inhibition in assay [1] and in assay [3] was less than 20% throughout. Besides, the inhibition at 0.1 µM in assay [2] was less than 20%; in assay [4], greater than 80%.

Regarding `Cc1ccc(S(=O)(=O)n2cc(C3=CCN4CCCC4C3)c3cc(F)ccc32)cc1` (racemic) [Example 6dd, 5-Fluoro-3-[(8a-R,S)-1,2,3,5,8,8a-hexahydro-7-indolizinyl]-1-(4-methylphenylsulfonyl)indole], the inhibition in assay [1] and in assay [3] was less than 20% in each case. Further, the results for the inhibition at 0.1 µM in assay [2] and in assay [4] were less than 20% and greater than 80%, respectively.

As to `O=S(=O)(c1ccc(Cl)cc1)n1cc(N2CCN3CCCC3C2)c2ccccc21` (racemic) [Example 6e, 1-(4-Chlorophenylsulfonyl)-3-[(6-R,S)-1,4-diaza[4.3. 0]bicyclonon-4-yl]indole], the inhibition at 0.1 µM in assay [4] was greater than 80%.

Take `COc1ccc(S(=O)(=O)n2cc(C3=CCN4CCCC4C3)c3cc(F)ccc32)cc1` (racemic) [Example 6ee, 5-Fluoro-3-[(8a-R,S)-1,2,3,5,8,8a-hexahydro-7-indolizinyl]-1-(4-methoxyphenylsulfonyl)indole]: the inhibition in assay [1] and in assay [3] was less than 20% throughout. Besides, the inhibition at 0.1 µM was less than 20% in assay [2] and greater than 80% in assay [4].

Turning to `O=S(=O)(c1ccc(F)cc1)n1cc(N2CCN3CCCC3C2)c2ccccc21` (racemic) [Example 6f, 3-[(6-R,S)-1,4-Diaza[4.3. 0]bicyclonon-4-yl]-1-(4-fluorophenylsulfonyl)indole], the inhibition at 0.1 µM in assay [4] was greater than 80%.

Turning to `COc1ccc(S(=O)(=O)n2cc(N3CCN4CCCC4C3)c3ccccc32)cc1` (racemic) [Example 6g, 3-[(6-R,S)-1,4-Diaza[4.3. 0]bicyclonon-4-yl]-1-(4-methoxyphenylsulfonyl)indole], the inhibition in assay [1] and in assay [3] was less than 20% throughout. Also, the inhibition at 0.1 µM was less than 20% in assay [2] and greater than 80% in assay [4].

On to `CC(C)(C)c1ccc(S(=O)(=O)n2cc(C3=CCN4CCCC4C3)c3cc(F)ccc32)cc1` (racemic) [Example 6gg, 1-(4-t-Butylphenylsulfonyl)-5-fluoro-3-[(8a-R,S)-1,2,3,5,8,8a-hexahydro-7-indolizinyl]indole], for which the inhibition in assay [1] and in assay [3] was less than 20% throughout. Further, the inhibition at 0.1 µM is less than 20% in assay [2] and greater than 80% in assay [4].

For the molecule `O=S(=O)(c1cc(Cl)ccc1Cl)n1cc(N2CCN3CCCC3C2)c2ccccc21` (racemic) [Example 6h, 3-[(6-R,S)-1,4-Diaza[4.3. 0]bicyclonon-4-yl]-1-(2,5-dichlorophenylsulfonyl)indole], the inhibition at 0.1 µM in assay [4] is greater than 80%.

For `O=S(=O)(c1cc(Cl)ccc1Cl)n1cc(C2=CCN3CCCC3C2)c2cc(F)ccc21` (racemic) [Example 6hh, 1-(2,5-Dichlorophenylsulfonyl)-5-fluoro-3-[(8a-R,S)-1,2,3,5,8,8a-hexahydro-7-indolizinyl]indole], the inhibition in assay [1] and in assay [3] was less than 20% throughout. Also, the inhibition at 0.1 µM in assay [2] was less than 20%; in assay [4], greater than 80%.

On to `O=S(=O)(c1ccccc1Br)n1cc(N2CCN3CCCC3C2)c2ccccc21` (racemic) [Example 6i, 1-(2-Bromophenylsulfonyl)-3-[(6-R,S)-1,4-diaza[4.3. 0]bicyclonon-4-yl]indole], for which the inhibition at 0.1 µM in assay [4] was greater than 80%.

For `Cc1ccc(S(=O)(=O)n2cc(N3CCN4CCCC4C3)c3ccccc32)cc1` (racemic) [Example 6k, 3-[(6-R,S)-1,4-Diaza[4.3. 0]bicyclonon-4-yl]-1-(4-methylphenylsulfonyl)indole], the inhibition at 0.1 µM in assay [4] is greater than 80%.

Turning to `Cc1ccc(S(=O)(=O)n2cc(N3CCN4CCCCC4C3)c3ccccc32)cc1` (racemic) [Example 6v, 3-[(6-R,S)-1,4-Diaza[4.4. 0]bicyclodecan-4-yl]-1-(4-methylphenylsulfonyl)indole], the inhibition at 0.1 µM in assay [4] is greater than 80%.

As for `Cc1ccc(S(=O)(=O)n2nc(N3CCN4CCCC4C3)c3ccccc32)cc1` (racemic) [Example 7a, 3-[(6-R,S)-1,4-Diaza[4.3. 0]bicyclonon-4-yl]-1-(4-methylphenylsulfonyl)indazole], in assay [4], the inhibition at 0.1 µM was greater than 80%.

`Cc1ccc(S(=O)(=O)n2nc(N3CCN4CCCCC4C3)c3ccccc32)cc1` (racemic) [Example 7b, 3-[(6-R,S)-1,4-Diaza[4.4. 0]bicyclodecan-4-yl]-1-(4-methylphenylsulfonyl)indazole]: in assay [4], the inhibition at 0.1 µM was greater than 80%.

As to `Cc1cccc(-n2cc(C3CCN4CCCC4C3)c3cc(F)ccc32)c1` (racemic) [Example 9a, 5-Fluoro-3-[(7-R,S)(8a-R,S)-octahydro-7-indolizinyl]-1-(3-methylphenyl)indole], the inhibition at 0.1 µM in assay [4] was greater than 80%.

On to `O=S(=O)(c1ccccc1)n1cc(C2=CCN3CCCC3C2)c2cc(OC3CCCCC3)ccc21` (racemic) [Example 10i, 5-Cyclohexyloxy-3-[(8a-R,S)-1,2,3,5,8,8a-hexahydrohydro-7-indolizinyl]-1-phenylsulfonylindole], for which the inhibition at 0.1 µM in assay [4] is greater than 80%.

In the case of `Fc1ccc2c(c1)c(C1CCN3CCCC3C1)cn2Cc1ccccc1` (single isomer, unassigned; isomer i) [Example 10h, 1-Benzyl-5-fluoro-3-[(7R or 7S)(8a-R,S)-octahydrohydro-7-indolizinyl]indole, Isomer I], the inhibition at 0.1 µM in assay [4] was greater than 80%.

On to `O=S(=O)(c1cc(Cl)ccc1Cl)n1cc(C2CCN3CCCC3C2)c2cc(F)ccc21` (single isomer, unassigned; isomer i) [Example 10j, 1-(2,5-Dichlorophenylsulfonyl)-5-Fluoro-3-[(7R or 7S)(8a-R,S)-octahydrohydro-7-indolizinyl]indole, Isomer I], for which the inhibition at 0.1 µM in assay [4] was greater than 80%.

`Cc1cccc(S(=O)(=O)n2cc(C3CCN4CCCC4C3)c3cc(F)ccc32)c1` (single isomer, unassigned; isomer i) [Example 10k, 5-Fluoro-1-(3-methylphenylsulfonyl)-3-[(7R or 7S)(8a-R,S)octahydrohydro-7-indolizinyl]lindole, Isomer I]: in assay [4], the inhibition at 0.1 µM was greater than 80%.
